{"source": "patent US9029336B2", "about": "“Xenobiotic related induction of gene expression” (The University of Sydney, priority 1998, dated 2015)", "target": "T1, hPXR (Homo sapiens, UniProt O75469)", "T1 sequence (O75469 1-434)": "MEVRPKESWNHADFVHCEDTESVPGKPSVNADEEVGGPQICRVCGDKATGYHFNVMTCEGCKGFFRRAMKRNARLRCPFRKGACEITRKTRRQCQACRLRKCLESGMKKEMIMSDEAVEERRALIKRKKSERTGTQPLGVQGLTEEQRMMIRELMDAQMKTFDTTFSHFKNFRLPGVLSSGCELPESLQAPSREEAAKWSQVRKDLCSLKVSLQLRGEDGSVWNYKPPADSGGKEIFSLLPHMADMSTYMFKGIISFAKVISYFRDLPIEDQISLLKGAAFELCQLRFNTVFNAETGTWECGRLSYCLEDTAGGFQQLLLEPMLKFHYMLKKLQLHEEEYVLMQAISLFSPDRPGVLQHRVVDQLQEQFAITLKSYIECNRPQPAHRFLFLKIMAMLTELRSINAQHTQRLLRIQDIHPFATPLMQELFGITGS", "experiment": "CYP3A4 XREM reporter construct cotransfected with hPXR expression vector (pSG-hPXR) in HepG2 cells", "conditions": "FIG. 4; for action on the XREM via the hPXR: HepG2, XREM reporter + hPXR expression vector", "from_the_text": "The present inventors cotransfected a CYP3A4 5′-flanking region construct, containing the XREM and linked to a luciferase reporter, into HepG2 cells either with or without a hPXR expression construct (pSG-hPXR).\nMany drugs induce the transcription of the CYP3A4 gene.", "data": [{"smiles": "Clc1ccccc1C(c1ccccc1)(c1ccccc1)n1ccnc1", "note": "[clotrimazole]", "values": [{"measurement": "action on the XREM via the hPXR", "result": "act on the XREM via the hPXR"}, {"measurement": "induction of the XREM construct", "setting": "HepG2 cells transfected with XREM reporter", "result": "induced the XREM construct in a manner analogous to that that occurs in vivo"}]}, {"smiles": "CCC1(c2ccccc2)C(=O)NC(=O)NC1=O", "note": "[phenobarbitone]", "values": [{"measurement": "action on the XREM via the hPXR", "result": "act on the XREM via the hPXR"}]}]}
